From patent publication US20170368082A1, “FORMULATIONS OF BRINCIDOFOVIR” (priority 2016, published 2017)

Assay: PBMC PK of CDV-PP following IV and oral suspension BCV
Format: in vivo, human
Conditions: PBMC CDV-PP
Method: Two single dose BCV studies in healthy subjects contributed data for this analysis. The first study was a 2-period crossover bioequivalence study that enrolled 24 subjects who received two formulations of BCV oral suspension 100 mg fasted, one in each period. Data from 12 subjects who had PBMCs collected in Period 1 were included in this analysis; these subjects were 100% female, 31-59 years, and 58-88 kg. The second study, outlined above, enrolled 40 subjects who received IV BCV or placebo. Data from 18 subjects who received BCV 50 mg as either a 2-h or 4-h IV infusion were included in this analysis; these subjects were 100% male, 18-46 years, 64-106 kg. Serial PBMC samples were collected over 14 days and assayed by HPLC-MS-MS. PBMC CDV-PP PK parameters were determined by non-compartmental analysis.

[1] = BCV 50 mg IV 2 h Infusion, n = 9
[2] = BCV 50 mg IV 4 h Infusion, n = 9
[3] = BCV 100 mg Oral suspension, n = 12

Substance: cidofovir diphosphate [CDV-PP]
- AUClast [1]: 1409 pg · h/10^6 cells
- Cmax [1]: 14.3 pg/10^6 cells
- AUClast [2]: 963 pg · h/10^6 cells
- Cmax [2]: 8.41 pg/10^6 cells
- AUClast [3]: 1107 pg · h/10^6 cells
- Cmax [3]: 7.68 pg/10^6 cells
